Test results published in patent publication US8580769B2, “Treatment of obesity, metabolic syndrome, and diabetes with protein kinase C inhibitors” (The United States of America as represented by the …, priority 2011, dated 2013).

Columns and labels:
total (ι plus ζ) aPKC = assay: aPKC activity and phosphorylation in intact human hepatocytes; type: cell-based; details: for phosphorylation of aPKC auto(trans)phosphorylation sites (p-threonine-555/560-PKC-ι/ζ): intact human hepatocytes
Excerpt: Human cryo-preserved hepatocytes (70-90% viability) were obtained from the Zen-Bio Corp (Research Triangle Park, North Carolina). These hepatocytes were harvested after perfusion with collagenase-containing buffer of livers surgically removed from non-diabetic patients (2 females and 6 males; ages, 43-60 years, 51±3 (mean±SEM); BMI, 23-35, 30±2) and T2DM patients (2 females and 3 males, ages, 46-68 years, 60±4; BMI, 27±2; all insulin-requiring) who had been maintained as transplant donors, but were ultimately rejected for administrative reasons. To maximize the importance of comparative differences, hepatocytes from T2DM and non-diabetic patients, and of similar age and sex, were routinely incubated and assayed side-by-side.
After thawing, the hepatocytes were distributed (approximately 10^6 cells per 100 mm plate) and incubated approximately 16 hours overnight in Dulbecco's minimal essential medium containing 5% fetal calf serum, 100 units/ml sodium-penicillin, 100 μg/ml streptomycin-sulfate, 1 μM insulin and 2 μM dexamethasone. After washing, cells were incubated first for 2 hours in William's E medium (Sigma-Aldrich, St. Louis, Mo., catalog no. W1878) containing GLUTAMAX™ (Gibco/Invitrogen, Carlsbad, Calif.), 100 units/ml sodium-penicillin, 100 μg/ml streptomycin-sulfate, 10 μM insulin, 100 nM dexamethasone, and then for 2 hours in William's E medium containing 100 units/ml sodium penicillin, 100 μg/ml streptomycin-sulfate, 100 nM dexamethasone, 0.25 mg/ml transferrin, 0.25 μg/ml sodium selenite and 10 μM insulin. Cells were then washed and incubated for 3 hours in the same medium, but lacking insulin. Where indicated, […], […] After incubation, cells were sonicated in homogenizing buffer.
Tissue and Immunoprecipitate Preparations: As previously described (Standaert et al., J. Biol. Chem. 279:24929-24934, 2004; Sajan et al., J. Lipid Res. 50:1133-1145, 2009; Sajan et al., Diabetologia 52:1197-1207, 2009; Farese et al., J. Clin. Invest. 117:2289-2301, 2007) hepatocytes and tissues from in vivo experiments were homogenized in ice-cold buffer containing 0.25 M sucrose, 20 mM Tris/HCl (pH 7.5), 2 mM EGTA, 2 mM EDTA, 1 mM phenylmethylsulfonyl fluoride (PMSF), 20 μg/ml leupeptin, 10 μg/ml aprotinin, 2 mM Na4P2O7, 2 mM Na3VO4, 2 mM NaF, and 1 μM microcystin. After centrifugation for 10 minutes at 700×g to remove unbroken cells, debris, nuclei, and floating fat, cell lysates were stored at −70° C. After addition of 1% TRITON® X-100, 0.6% Nonidet and 150 mM NaCl, lysates were cleared of insoluble materials by low-speed centrifugation and subsequently immunoprecipitated with antibodies that target: (a) aPKCs (rabbit polyclonal antiserum from Santa Cruz Biotechnologies (Santa Cruz, Calif.) that recognizes C-termini of both PKC-λ and PKC-ζ); and (b) Akt2 (Upstate Cell Signaling/Millipore, Billerica, Mass.). Immunoprecipitates were collected on Sepharose-AG beads (Santa Cruz Biotechnologies).
aPKCι Assays: aPKC enzyme activity was measured as previously described (Standaert et al., J. Biol. Chem. 279:24929-24934, 2004; Sajan et al., J. Lipid Res. 50:1133-1145, 2009; Sajan et al., Diabetologia 52:1197-1207, 2009; Farese et al., J. Clin. Invest. 117:2289-2301, 2007). […]

liver of Het-MλKO mice = assay: hepatic mRNA and nuclear NFκB levels in Het-MλKO mice; type: in vivo, mouse; details: for hepatic ACC mRNA / hepatic FAS mRNA: 7-day treatment s.c. (ATM 60 mg/kg; ICAPP 0.4 mg/kg); for hepatic G6 Pase expression / hepatic PEPCK expression / hepatic SREBP-1c mRNA: s.c. once daily (ATM 60 mg/kg; ICAPP 0.4 mg/kg; ICAP 0.5 mg/kg)
Excerpt: In Vivo Mouse Studies: Male wild type (WT) and heterozygous muscle-specific PKC-λ knockout (Het-MλKO) mice were generated as described (Farese et al., J. Clin. Invest. 117:2289-2301, 2007) and used at 6-12 months of age, when the O/MS/T2DM phenotype in MλKO mice is well-developed. Mice were housed in a temperature-controlled environment with alternating 12-hour light and dark cycles, and fed ad libitum with standard chow (Harlan Teklad 20/18 with 5% fat, (10% of calories from fat)). All experimental procedures in mice were approved by the Institutional Animal Care and Use Committees of the Roskamp Institute and the University of South Florida College of Medicine, and the James A. Haley Veterans Administration Medical Center Research and Development Committee, Tampa, Fla.
(ICAPP; prepared by Southern Research, Birmingham, Ala.) at 0.4 mg/kg body weight. On the morning of the eighth day of inhibitor treatment, mice were injected intraperitoneally (IP) with 0.9% saline or saline containing 1 U insulin/kg body weight 15 minutes before sacrifice, an optimal time for studies of insulin stimulation of aPKC and Akt in liver, muscle and adipose tissues (Standaert et al., J. Biol. Chem. 279:24929-24934, 2004; Sajan et al., J. Lipid Res. 50:1133-1145, 2009; Sajan et al., Diabetologia 52:1197-1207, 2009; Farese et al., J. Clin. Invest. 117:2289-2301, 2007). After killing, blood, liver, quadriceps muscle and abdominal adipose tissues were rapidly removed and homogenized in buffer with a POLYTRON® homogenizer.
mRNA Measurements: As previously described (Sajan et al., J. Lipid Res. 50:1133-1145, 2009; Sajan et al., Diabetologia 52:1197-1207, 2009; Farese et al., J. Clin. Invest. 117:2289-2301, 2007), tissues were added to TRIZOL® reagent (Invitrogen) and RNA was extracted and purified with the RNEASY® Mini-Kit (Qiagen; Valencia, Calif.) and RNAase-free DNAase set (Qiagen) as per kit instructions, quantified by measuring A260/A280, further checked for purity by electrophoresis on 1.2% agarose gels, and mRNA quantified by quantitative real-time reverse transcriptase-polymerase chain reaction (RT-PCR). Reverse transcription was accomplished with TAQMAN® reverse transcription reagent from Applied Biosystems (Foster City, Calif., USA). mRNAs were measured with a SYBR® Green kit (Applied Biosystems) using the nucleotide primers shown in Table 1.
Nuclear Preparations: As previously described (Sajan et al., J. Lipid Res. 50:1133-1145, 2009; Sajan et al., Diabetologia 52:1197-1207, 2009; Farese et al., J. Clin. Invest. 117:2289-2301, 2007), liver nuclei were prepared with NE-PER® Nuclear and Cytoplasmic Extraction Reagents (Pierce Biotechnology/Thermo Scientific, Waltham, Mass.; Cat. No. 78833) Levels of the active p65/RelA subunit of NFκB were measured in these nuclear preparations.

[1] = Het-MλKO mice, ATM 60 mg/kg/day s.c., 7 days
[2] = liver of ICAP-treated Mλ-Het KO mice, relative to wild type = 1

Compound | total aPKC activity in intact hepatocytes (total (ι plus ζ) aPKC; human hepatocytes) | phosphorylation of aPKC auto(trans)phosphorylation sites (p-threonine-555/560-PKC-ι/ζ) (total (ι plus ζ) aPKC) | hepatic ACC mRNA (liver of Het-MλKO mice; Het-MλKO mice) | hepatic FAS mRNA (liver of Het-MλKO mice; Het-MλKO mice) | hepatic active nuclear NFκB/p65/RelA levels (liver of Het-MλKO mice; [1]) | hepatic expression of IL-1β (liver of Het-MλKO mice; [1]) | hepatic expression of TNF-α (liver of Het-MλKO mice; [1]) | hepatic G6 Pase expression (liver of Het-MλKO mice; Het-MλKO mice) | hepatic PEPCK expression (liver of Het-MλKO mice; Het-MλKO mice) | hepatic SREBP-1c mRNA (liver of Het-MλKO mice; Het-MλKO mice) | insulin-provoked increase in aPKC activity (total (ι plus ζ) aPKC; non-diabetic human hepatocytes, 6 hours, 100 nM insulin, 100 nM ICAP) | relative mRNA level, G6Pase (liver of Het-MλKO mice; [2]) | relative mRNA level, PEPCK (liver of Het-MλKO mice; [2]) | relative mRNA level, SREBP-1c (liver of Het-MλKO mice; [2]) | PDK1-dependent phosphorylation of activation loop sites of PKC-ι/ζ (threonine-403/410) (total (ι plus ζ) aPKC; human hepatocytes) | basal immunoprecipitable aPKC activity (total (ι plus ζ) aPKC; human hepatocytes, basal (no insulin)) | inhibition of insulin-stimulated total (ι plus ζ) aPKC activity in intact human hepatocytes (total (ι plus ζ) aPKC; non-diabetic human hepatocytes, 4 hours)
O=C([O-])CC([S][Au])C(=O)[O-] (centres unmarked) [ATM, aurothiomalate, reference compound] | diminished | diminished | decreased, virtually to normal | decreased, virtually to normal | decreased, virtually to normal | normalized | normalized | diminished | diminished | decreased, virtually to normal |  |  |  |  |  |  | 
NC(=O)c1ncn([C@@H]2C[C@H](CO)[C@@H](O)[C@H]2O)c1N [ICAP, 1H-imidazole-4-carboxamide 5-amino-1-[2,3-dihydroxy-4-[hydroxymethyl]cyclopentyl]-[1R-(1α,2β,3β,4α)]] |  |  |  |  |  |  |  | decreased | decreased | decreased | inhibited | 1.42 | 0.52 | 1.14 |  |  | 
NC(=O)c1ncn([C@@H]2C[C@H](COP(=O)(O)O)[C@@H](O)[C@H]2O)c1N [ICAPP, 1H-imidazole-4-carboxamide, 5-amino-1-[2,3-dihydroxy-4-[(phosphonooxy)methyl]cyclopentyl]-[1R-(1α,2β,3β,4α)]] |  | diminished | diminished to wild type levels | diminished to wild type levels |  |  |  | trended downward to or toward control levels | trended downward to or toward control levels | diminished to wild type levels |  |  |  |  | did not inhibit | resistant | approximately 50%
